Results reported in patent US20160137639A1, “TRIAZOLE-ISOXAZOLE COMPOUND AND MEDICAL USE THEREOF” (JAPAN TOBACCO INC., priority 2012, published 2016).
Like-named read-outs stand apart in the source and are kept apart here.

Key:
human RORγ = molecular target: T1, human RORγ (Homo sapiens, UniProt P51449); assay: Luciferase reporter gene assay of inhibitory effect against RORγ transcriptional activity (GAL4-hRORγ plasmid in CHO cells); type: cell-based
T1 construct: human, NM_005060.3 and from Ser253 to Lys518; expressed in transfected cells; host or cells: CHO cells (transient co-transfection with pG5-Luc reporter)
T1 sequence (P51449 253-518): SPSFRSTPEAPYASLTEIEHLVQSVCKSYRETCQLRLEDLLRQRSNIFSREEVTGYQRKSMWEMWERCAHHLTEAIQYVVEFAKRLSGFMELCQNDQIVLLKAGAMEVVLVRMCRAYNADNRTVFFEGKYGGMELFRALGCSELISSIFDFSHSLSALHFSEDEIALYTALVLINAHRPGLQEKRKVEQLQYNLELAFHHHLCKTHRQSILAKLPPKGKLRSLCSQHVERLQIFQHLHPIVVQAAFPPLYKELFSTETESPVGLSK

mouse RORγ = molecular target: T2, mouse RORγ (Mus musculus, UniProt P51450); assay: Luciferase reporter gene assay of inhibitory effect against RORγ transcriptional activity (GAL4-mRORγ plasmid in CHO cells); type: cell-based
T2 construct: mouse, NM_011281.2 and from Ile251 to Lys516; expressed in transfected cells; host or cells: CHO cells (transient co-transfection with pG5-Luc reporter)
T2 sequence (P51450 251-516): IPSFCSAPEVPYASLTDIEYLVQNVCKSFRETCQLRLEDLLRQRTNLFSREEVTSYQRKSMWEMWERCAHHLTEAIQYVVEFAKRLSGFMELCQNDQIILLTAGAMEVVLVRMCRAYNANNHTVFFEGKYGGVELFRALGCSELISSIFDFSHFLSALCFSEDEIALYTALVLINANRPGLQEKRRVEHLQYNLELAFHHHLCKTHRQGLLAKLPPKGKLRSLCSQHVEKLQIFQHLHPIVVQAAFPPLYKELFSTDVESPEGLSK
Method in brief: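 Readout is intracellular luciferase after 2-day compound exposure (8 concentrations, 0.1% DMSO) in CHO cells expressing GAL4 fused to mouse RORγ LBD residues Ile251–Lys516 plus pG5-Luc reporter. EC50 fitted from %-of-control; points showing resazurin-detected cytotoxicity dropped.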

Row | SMILES | EC50 (human RORγ; read-out: LUC EC50 (μM) hRORg) [µM] | EC50 (mouse RORγ; read-out: LUC EC50 (μM) mRORg) [µM] | EC50 (human RORγ; read-out: LUC EC50 hRORg) [µM] | EC50 (mouse RORγ; read-out: LUC EC50 mRORg) [µM]
1 | COc1cccc(C)c1NC(=O)CCc1nnc(CCC(C)C)n1C1CC1 [Example F-86] | > 3 | > 3 | – | –
2 | Cc1c(Cl)cccc1NC(=O)CCc1nnc(CCC2CCCNC2)n1C1CC1 (racemic) [Example F-189] | > 3 | > 3 | – | –
3 | Cc1c(Cl)cccc1NC(=O)CCc1nnc(CCC2CCCN(C(=O)OC(C)(C)C)C2)n1C1CC1 (racemic) [Example F-186] | < 3 | < 3 | – | –
4 | Cc1ccc(NC(=O)C[C@H](CCC(=O)O)c2noc(-c3cc(C4CC(F)(F)C4)on3)c2C2CC2)c(Cl)c1 [Example E-47] | < 3 | < 3 | – | –
5 | Cc1cc(F)ccc1NC(=O)C[C@H](CCO)c1nnc([C@H]2C[C@@H](CC(C)C)C2)n1C1CC1 [Example F-594] | – | – | < 3 | < 3
6 | CCn1c(CCC(=O)Nc2cc(C)cc(C)c2)nnc1CCC(C)(C)C [Example F-46] | > 3 | > 3 | – | –
7 | Cc1cc(Cl)ccc1NC(=O)C[C@H](CC(C)C)c1nnc(-c2cc(CC(C)(C)C)on2)n1C1CC1 [Example F-626] | – | – | < 3 | < 3
8 | Cc1c(Cl)cccc1NC(=O)CCc1nnc(CCn2cccn2)n1C1CC1 [Example F-172] | > 3 | > 3 | – | –
9 | Cc1ccc(NC(=O)C[C@H](CCC(=O)O)c2noc(-c3cc(CCC(C)C)on3)c2C(F)(F)F)c(F)c1 [Example E-13] | > 3 | < 3 | – | –
10 | CC(C)CCc1nnc(CCC(=O)Nc2nnc3ccccn23)n1C1CC1 [Example F-139] | > 3 | > 3 | – | –
11 | COc1cc(C)ccc1CNC(=O)CCc1nnc(CCC2(C)CCCCC2)n1C1CC1 [Example F-270] | < 3 | < 3 | – | –
12 | Cc1c(Cl)cccc1NC(=O)CCc1nnc(CCCC(C)(C)C(=O)O)n1C1CC1 [Example F-232] | > 3 | > 3 | – | –
13 | Cc1ccc(NC(=O)CCc2noc(C34CC5CC(CC(C5)C3)C4)c2C2CC2)c(Cl)c1 [Example F-734] | – | – | < 3 | < 3
14 | CC(=O)N1C[C@@H](C(=O)Nc2ccc(C)cc2C)[C@H](c2nnc([C@H]3C[C@H](OC(C)C)C3)n2C2CC2)C1 [Example F-335] | > 3 | > 3 | – | –
15 | Cc1c(Cl)cccc1NC(=O)CCc1nnc(CC(C)C(C)C)n1C1CC1 (racemic) [Example F-117] | > 3 | < 3 | – | –
16 | Cc1ccc(NC(=O)C(C)C(CCOCc2ccccc2)c2nnc([C@H]3C[C@@H](CC(C)C)C3)n2C2CC2)c(C)c1 (mixture of isomers) [Example F-488] | > 3 | < 3 | – | –
17 | Cc1ccc(NC(=O)CC(CC(=O)N2CC[C@@H](O)C2)c2nnc([C@H]3C[C@@H](CC(C)C)C3)n2C2CC2)c(C)c1 (mixture of isomers) [Example F-502] | – | – | > 3 | > 3
18 | Cc1c(Cl)cccc1NC(=O)CC(CO)c1nnc(CCC(C)C)n1C1CC1 (racemic) [Example F-167] | < 3 | < 3 | – | –
19 | CCCC(CCC)NC(=O)CCc1nnc(C2Cc3ccccc3C2)n1CC [Example F-28] | > 3 | > 3 | – | –
20 | Cc1ccc(NC(=O)CCc2noc(CCC3CCCCC3)c2C2CC2)c(C)c1 [Example F-494] | < 3 | < 3 | – | –
21 | CC(C)CCc1nnc(CCC(=O)NCc2cccc3[nH]cnc23)n1C1CC1 [Example F-115] | > 3 | > 3 | – | –
22 | Cc1ccc(NC(=O)CCc2nnc(CCC(C)(C)C)n2C2CC2)c(C)c1 [Example F-69] | > 3 | < 3 | – | –
23 | Cc1ccc(NC(=O)C[C@H](NC(=O)OCc2ccccc2)c2nnc(CCCC(C)(C)C)n2C2CC2)c(C)c1 [Example F-355] | < 3 | < 3 | – | –
24 | Cc1ccc(CNC(=O)CCc2nnc(CCC(C)C)n2C2CC2)c(O)c1 [Example F-149] | > 3 | > 3 | – | –
25 | Cc1cc(Cl)ccc1NC(=O)C[C@H](CCO)c1nnc(-c2cc(CC(C)C)on2)n1C1CC1 [Example F-660] | – | – | < 3 | < 3
26 | COCc1ccc(NC(=O)CCc2nnc(CCC(C)C)n2C2CC2)c(C)c1 [Example F-136] | > 3 | > 3 | – | –
